The test system of this assay is 327498-153-R-J2-PDC complex spheroid growth, % test/control. Briefly: Anticancer human tumor 327498-153-R-J2-PDC patient-derived uterine carcinosarcoma cell line growth inhibition [Asc]. As to conditions: for viability, T/C: stronger effect = lower value. On the procedure:
Multicellular complex tumor spheroid response to apoptosis pathway targeting inhibitors Alrizomadlin, Pelcitoclax, and Dasminapant in combination with a variety of drugs and investigational agents in selected tumor cell lines
The MDM2 inhibitor alrizomadlin, the Bcl-2/Bcl-xL inhibitor pelcitoclax, and the IAPs inhibitor dasminapant were evaluated both individually and in combination with standard of care and investigational anticancer small molecules within a complex spheroid model of solid tumors. . Complex spheroids include a stromal component modeled by human endothelial cells (HUVEC) and fibroblasts modeled by human mesenchymal stem cells (MSCs). The concentration ranges selected for each drug and investigational agent were based upon clinically achievable concentrations if the clinical Cmax of the agent was known.
Compounds. The drugs and investigational agents: alrizomadlin (APG-115; NSC831270), pelcitoclax (APG-1252; NSC835773), dasminapant (APG-1387;NSC834197), TAK-243 (NSC785004), copanlisib (NSC809693), olaparib (NSC753686), talazoparib (NSC767125), cobimetinib (NSC 768068), eltanexor (KPT-8602, NSC 794443), abemaciclib (NSC 768073), sotorasib (NSC818433), adagrasib (NSC 831453), MRTX-1133 (NSC 836407), Iadademestat (ORY1001, NSC 806812), and RMC-4630 (NSC839698), were obtained from the NCI Developmental Therapeutics Program Chemical Repository. The FDA-approved anticancer drug set is available from the Developmental Therapeutics Program at https://dtp.cancer.gov/organization/dscb/obtaining/available plates.htm. […] The stock solutions were prepared in dimethyl sulfoxide (DMSO, Sigma-Aldrich, St. Louis, MO, cat. D2650) at 800-fold the tested concentration and stored at -70 degrees C prior to their use. All drugs and investigational agents were tested over a range starting from a high concentration at or near the clinical Cmax and decreasing in half-log increments. If the clinical Cmax for an agent had not been determined, the highest concentration tested was 10 microM.
The patient-derived cancer (PDC) cell lines include five colon adenocarcinomas: 186277-243-T-J2-PDC, 616215-338-R-J1-PDC, 439559-082-T-J2-PDC, 463943-066-T-J2-PDC, and 519858-162-T-J1-PDC; three pancreatic carcinomas: 323965-272-R-J2-PDC, 521955-158-R6-J3-PDC, and 521955-158-R2-J5-PDC; two uterine sarcomas: 327498-152-R-J2-PDC and 993429-296-R-J1-PDC; two rhabdomyosarcomas: 755483-174-R-J1-PDC and 772245-204-R-J1-PDC; two soft tissue sarcomas: 126254-015-R-J1-PDC and 494315-158-R-J1-PDC; two malignant fibrous histiocytomas: 317291-083-R-J1-PDC and 596521-263-R-J1-PDC; two breast carcinomas: 171881-019-R-J1-PDC and 885512-296-R-J2-PDC; and one ovarian carcinoma: 6556581-035-R-J-PDC were obtained from the NCI PDMR, (https://pdmr.cancer.gov). The established cell lines HSSY-2 synovial sarcoma (RRID:CVCL 8719), SYO-1 synovial sarcoma (RRID:CVCL_7146), MPNST malignant peripheral neural sheath tumor were obtained from the Sloan Kettering Institute. The following established cell lines were purchased from the American Type Culture Collection (ATCC, Manassas, VA), Sor the received from the NCI repository:, PANC-1 pancreatic carcinoma (CRL-1469, RRID:CVCL_0480), OVCAR-5 ovarian carcinoma (RRID:CVCL_1628), OVCAR-8 ovarian carcinoma (RRID:CVCL_1629), , MCF-7 breast carcinoma (CRL-12584, RRID:CVCL_0031), MDA-MB-231 breast carcinoma (CRL-12532, RRID:CVCL_0062), NCI-H1876 small cell lung carcinoma (CRL-5902, RRID:CVCL_1503), NCI-H510A small cell lung carcinoma (HTB-184, RRID:CVCL_1565), NCI-H1417 (CRL-5869, RRID:CVCL_1469), and NCI-H196 small cell lung carcinoma (CRL-5823, RRID:CVCL_1509). Dr. Peter Houghton (Greehey Children's Cancer Research Institute, University of Texas Health Science Center, San Antonio, TX) provided Rh-18 rhabdomyosarcoma (RRID:CVCL_1659). Pooled donor human umbilical vein endothelial cells (HUVEC, Lonza, cat. CC-2519) and human mesenchymal stem cells (hMSC, Lonza, cat. PT-2501) were purchased from Lonza (Walkersville, MD).
Cell Culture. […]

Where [1] appears, read: curve of first compound, second compound 0.1 µM.
The mark [2] stands for this setting: curve of first compound, second compound 0.316 µM.
[3] abbreviates: curve of first compound, second compound 1 µM.
[4] abbreviates: second compound 0.1 µM, first compound 0.0316 µM.
The mark [5] stands for this setting: second compound 0.1 µM, first compound 0.1 µM.
Where [6] appears, read: second compound 0.1 µM, first compound 0.316 µM.
Where [7] appears, read: second compound 0.1 µM, first compound 1 µM.
The mark [8] stands for this setting: second compound 0.316 µM, first compound 0.0316 µM.
[9] abbreviates: second compound 0.316 µM, first compound 0.1 µM.
[10] abbreviates: second compound 0.316 µM, first compound 0.316 µM.
[11] abbreviates: second compound 0.316 µM, first compound 1 µM.
Setting [12] is: second compound 1 µM, first compound 0.0316 µM.
[13] abbreviates: second compound 1 µM, first compound 0.1 µM.
Setting [14] is: second compound 1 µM, first compound 0.316 µM.
[15] abbreviates: second compound 1 µM, first compound 1 µM.

“And” between values parts separate entries of the source, which are not always exact repeats. Equal entries are not always repeated. Bounds are passed on as bounds.

Usually IC50 stands for the point on the concentration scale where inhibition reaches its midpoint. By viability, T/C is commonly meant the result in the treated group divided by that in the control group, in per cent.
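Also: spheroids exposed to compound for 7 days after 3 days of growth.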
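For viability, T/C in this document: 100% = DMSO vehicle control wells.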

Consider `C#Cc1c(F)ccc2cc(O)cc(-c3ncc4c(N5CC6CCC(C5)N6)nc(OCC56CCCN5CC(F)C6)nc4c3F)c12` (centres undefined) + Cc1c(S(C)(=O)=O)c(-c2cc(F)cc(N3CCN(c4ccc(NS(=O)(=O)c5ccc(NC(CCN6CCC(C(=O)OCCCP(=O)(O)O)CC6)CSc6ccccc6)c(S(=O)(=O)C(F)(F)F)c5)cc4)CC3)c2)c(-c2ccc(Cl)cc2)n1C(C)C, for which the 50% inhibitory concentration (IC50) by setting is: under setting [1], more than 10000 nM; under setting [2], 5990 nM; under setting [3], 3180 nM; (curve of first compound, second compound 3.16 µM) 5040 nM; (curve of first compound, second compound 10 µM) more than 10000 nM. In addition, the viability, T/C runs as follows: under setting [4], 97.2%; under setting [5], 107%; under setting [6], 82.5%; under setting [7], 75.1%; (second compound 0.1 µM, first compound 3.16 µM) 61.7%; (second compound 0.1 µM, first compound 10 µM) 50.1%. Besides, the viability, T/C under setting [8] was 102%; the viability, T/C under setting [9] was 88.9%; the viability, T/C under setting [10] was 88.3%; the viability, T/C under setting [11] was 65.8%; the viability, T/C (second compound 0.316 µM, first compound 3.16 µM) was 53.8%; the viability, T/C (second compound 0.316 µM, first compound 10 µM) is 47.3%. Besides, the viability, T/C under setting [12] was 90.6%; the viability, T/C under setting [13] is 101%; the viability, T/C under setting [14] was 81%; the viability, T/C under setting [15] is 71.1%; the viability, T/C (second compound 1 µM, first compound 3.16 µM) is 47.9%; the viability, T/C (second compound 1 µM, first compound 10 µM) was 43.8%. Further, the viability, T/C by setting is: (second compound 3.16 µM, first compound 0.0316 µM) 96.6%; (second compound 3.16 µM, first compound 0.1 µM) 87.5%; (second compound 3.16 µM, first compound 0.316 µM) 70.8%; (second compound 3.16 µM, first compound 1 µM) 69.7%; (second compound 3.16 µM, first compound 3.16 µM) 51.4%; (second compound 3.16 µM, first compound 10 µM) 44.4%. The viability, T/C by setting is: (second compound 10 µM, first compound 0.0316 µM) 166%; (second compound 10 µM, first compound 0.1 µM) 165%; (second compound 10 µM, first compound 0.316 µM) 150%; (second compound 10 µM, first compound 1 µM) 145%; (second compound 10 µM, first compound 3.16 µM) 133%; (second compound 10 µM, first compound 10 µM) 86.6%.

Take `Cc1nc(N2CCC3(CC2)COC(C)C3N)c(CO)nc1Sc1ccnc(N)c1Cl` (centres undefined): the viability, T/C reads like this: (compound 0.00949 µM) 98.2% and 101% and 93%; (compound 0.03 µM) 94% and 88.4% and 87.5%; (compound 0.0949 µM) 86.9% and 73.2% and 77%; (compound 0.3 µM) 76.2% and 64.7% and 71.6%; (compound 0.949 µM) 65.4% and 58.5% and 56.2%; (compound 3 µM) 49.8% and 40.1% and 52.5%. Where the note is “curve of compound”, the IC50 was > 3000 nM and 1400 nM.

As for `Cn1ncnc1[C@H]1c2n[nH]c(=O)c3cc(F)cc(c23)N[C@@H]1c1ccc(F)cc1`, the viability, T/C is 95.8% and 103% and 101% (compound 0.000316 µM); 93.7% and 105% and 94% (compound 0.001 µM); 88.7% and 110% and 91.1% (compound 0.00316 µM); 61.8% and 77.4% and 65.8% (compound 0.01 µM); 28.1% and 33.8% and 26.1% (compound 0.0316 µM); 12.9% and 16.1% and 13.9% (compound 0.1 µM). In addition, the IC50 (curve of compound) is 15.1 nM and 20.5 nM and 15.8 nM.

Take `O=C(c1ccc(F)c(F)c1Nc1ccc(I)cc1F)N1CC(O)([C@@H]2CCCCN2)C1` + CNC(C)C(=O)NC1CN(S(=O)(=O)c2cccc(S(=O)(=O)N3CCC4CCC(C(=O)NC(c5ccccc5)c5ccccc5)N4C(=O)C(NC(=O)C(C)NC)C3)c2)CCC2CCC(C(=O)NC(c3ccccc3)c3ccccc3)N2C1=O: the half-inhibitory concentration (IC50) was 391 nM (curve of first compound, second compound 0.01 µM); 377 nM (curve of first compound, second compound 0.0316 µM); 377 nM under setting [1]; 304 nM under setting [2]; 430 nM under setting [3]. The viability, T/C by setting is: (second compound 0.01 µM, first compound 0.00316 µM) 97.4%; (second compound 0.01 µM, first compound 0.01 µM) 91.9%; (second compound 0.01 µM, first compound 0.0316 µM) 81.7%; (second compound 0.01 µM, first compound 0.1 µM) 78.5%; (second compound 0.01 µM, first compound 0.316 µM) 55.7%; (second compound 0.01 µM, first compound 1 µM) 23.5%. Moreover, the viability, T/C runs as follows: (second compound 0.0316 µM, first compound 0.00316 µM) 104%; (second compound 0.0316 µM, first compound 0.01 µM) 98.6%; (second compound 0.0316 µM, first compound 0.0316 µM) 89%; (second compound 0.0316 µM, first compound 0.1 µM) 76.4%; (second compound 0.0316 µM, first compound 0.316 µM) 55.7%; (second compound 0.0316 µM, first compound 1 µM) 22.9%. The viability, T/C by setting is: (second compound 0.1 µM, first compound 0.00316 µM) 104%; (second compound 0.1 µM, first compound 0.01 µM) 88%; under setting [4], 85.8%; under setting [5], 76.8%; under setting [6], 56%; under setting [7], 21.9%. Moreover, the viability, T/C is 105% (second compound 0.316 µM, first compound 0.00316 µM); 102% (second compound 0.316 µM, first compound 0.01 µM); 77.7% under setting [8]; 75.7% under setting [9]; 48.2% under setting [10]; 22.6% under setting [11]. Also, the viability, T/C by setting is: (second compound 1 µM, first compound 0.00316 µM) 104%; (second compound 1 µM, first compound 0.01 µM) 92.9%; under setting [12], 92.3%; under setting [13], 80.9%; under setting [14], 62.5%; under setting [15], 20%.

For the origin of these results see PubChem BioAssay AID1963424 (Molecular Pharmacology Branch, DTP, NCI, 2024).
